Patent publication US9387219B2, “Edible composition” (Conopco, Inc., priority 2011, dated 2016)

Tests used:
SGLT1 = target: T1, SGLT1 (Homo sapiens, UniProt P13866); experiment: Glucose transport inhibitor cell screening assay, 5 mM D-glucose for 15 minutes (SGLT1 inhibition); assay type: cell-based; conditions: for SGLT1 inhibitory activity (in words): Caco-2 cell model; for Class (assigned class of transporter inhibited): assigned from % inhibition at 5 mM and 25 mM D-glucose in Caco-2 cells
T1 construct: endogenous in cells; host or cells: differentiated Caco-2 cell monolayers (ATCC)
T1 sequence (P13866 1-664): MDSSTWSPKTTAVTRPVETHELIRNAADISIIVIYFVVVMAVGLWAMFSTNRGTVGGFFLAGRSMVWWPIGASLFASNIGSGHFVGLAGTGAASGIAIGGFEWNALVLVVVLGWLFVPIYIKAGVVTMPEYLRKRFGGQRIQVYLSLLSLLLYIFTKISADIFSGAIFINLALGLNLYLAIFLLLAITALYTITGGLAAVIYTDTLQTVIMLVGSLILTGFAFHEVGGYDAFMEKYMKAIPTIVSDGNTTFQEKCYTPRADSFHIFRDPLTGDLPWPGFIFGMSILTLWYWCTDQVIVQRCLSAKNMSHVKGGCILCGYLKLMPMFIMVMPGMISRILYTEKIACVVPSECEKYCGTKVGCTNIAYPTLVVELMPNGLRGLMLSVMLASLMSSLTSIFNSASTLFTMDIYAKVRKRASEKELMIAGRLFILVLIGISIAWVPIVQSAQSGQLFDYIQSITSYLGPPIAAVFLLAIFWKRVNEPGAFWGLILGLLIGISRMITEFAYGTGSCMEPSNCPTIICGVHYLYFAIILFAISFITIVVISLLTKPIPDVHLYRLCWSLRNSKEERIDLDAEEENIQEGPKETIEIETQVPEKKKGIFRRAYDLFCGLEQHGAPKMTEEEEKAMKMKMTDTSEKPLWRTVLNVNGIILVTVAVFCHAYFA
Description: (§1) Human epithelial colorectal adenocarcinoma (Caco-2) cells were obtained from the American Type Culture Collection (ATCC) and cultured in Growth Medium consisting of Dulbecco's modified Eagle's medium (containing Glutamax-1, 4.5 g/L D-glucose and 25 mM 4-(2-hydroxyethyl)-1-piperazine ethanesulphonic acid (Hepes) (Invitrogen)), 10% foetal bovine serum (Sigma), 1% non-essential amino acids (Invitrogen) and 1 mM sodium pyruvate (Sigma)). The cells were routinely passaged at approximately 80% confluence using TrypLE™ Express Stable Trypsin-Like Enzyme (Invitrogen) to detach the cells, and seeded at approximately 114 cells per mm^2 in fresh tissue culture flasks. Only cells between the passage numbers 45 and 49 were used for experiments.
(§2) Corning® HTS Transwell® 96 well permeable insert supports (Sigma) were collagen coated with 40 μl of 50 μg/ml rat tail collagen type I (BD Biosciences) in 0.02 M acetic acid for one hour at room temperature under sterile conditions. The inserts were washed twice in phosphate buffered saline (PBS (Invitrogen)) and the Caco-2 cells seeded into the inserts at 9.6×10^5 cell/ml (75 μl per insert) in Growth Medium and 30 ml of Growth Medium added to the feeder plate below. The cells were left to attach to the collagen matrix and form monolayers over 48 hours at 37° C., 5% CO2. Both inserts and feeder plate were washed in PBS and the cells incubated with BD Entero-STIM™ Enterocyte Differentiation Medium containing MITO+™ Serum Extender solution (both BD Biosciences), 75 μl per insert and 30 ml in the feeder plate, for a further 48 hours at 37° C., 5% CO2.
(§3) Differentiated cell monolayers were washed gently in Dulbecco's Phosphate Buffered Saline containing CaCl2 and MgCl2 (PBS(+) (Invitrogen)) and the inserts transferred to a new Corning® HTS Transwell®-96 well receiver plate (Sigma). The cells were incubated with fresh PBS(+) (75 μl per insert and 225 μl per well) for 60 minutes at 37° C., 5% CO2. The PBS(+) was gently aspirated and replaced with 75 μl per insert of either 5 mM D-glucose (Sigma)±test active or 25 mM D-glucose±test active in triplicate and 225 μl per well of PBS(+) quickly added to each well. The 5 mM glucose wells and the 25 mM glucose wells were incubated at 37° C., 5% CO2 for 15 minutes and 30 minutes, respectively. Details of all the actives tested are found in table 1. The cell inserts were transferred to a new receiver plate, the supernatant gently aspirated from the cells and replaced with 100 μl of 100 μM of Lucifer Yellow (Sigma) solution to confirm the integrity of the monolayers. 225 μl of PBS(+) was added to each well and incubated at 37° C., 5% CO2 for 1 hour. The cell inserts were then discarded and the permeability of the membranes to Lucifer Yellow checked by measuring the fluorescence of the samples at 485 nm (excitation) and 530 nm (emission) on a Spectramax Gemini EM fluorescence microplate reader.
(§4) The amount of glucose transported across the cell monolayers was measured using a glucose assay based on Invitrogen's Amplex Red Glucose/Glucose oxidase Assay Kit. Briefly, 50 μl of each test sample was transferred to a black sided/clear bottom 96-well plate (Greiner Bio-One) to which 100 μl of reaction buffer (0.5 μl 10 mM Ampliflu Red, 1 μl 10 U/ml Horse Radish peroxidase, 1 μl 100 U/ml glucose oxidase and 97.5 μl PBS (all Sigma)) was added. After 10 minutes incubation at room temperature, the fluorescence of the samples were measured at 530 nm (excitation) and 590 nm (emission) on a Spectramax Gemini EM fluorescence microplate reader and the glucose concentration extrapolated from a standard curve.
(§5) At higher D-glucose concentrations, the SGLT1 transporter becomes saturated and consequently the majority of glucose transport across the monolayer is driven by the low affinity, high capacity GLUT2 transporter that is targeted to the apical membrane only following an initial SGLT1-dependent transport of glucose.

GLUT2 = target: T2, GLUT2 (Homo sapiens, UniProt P11168); experiment: Glucose transport inhibitor cell screening assay, 25 mM D-glucose for 30 minutes (GLUT2 inhibition); assay type: cell-based; conditions: for % Glucose Transport inhibition 25 mM / inhibition at 150 µM: differentiated Caco-2 monolayer, 30 minutes, active at 150 uM; for GLUT2 inhibitory activity (in words): Caco-2 cell model
T2 construct: endogenous in cells; host or cells: differentiated Caco-2 cell monolayers (ATCC)
T2 sequence (P11168 1-524): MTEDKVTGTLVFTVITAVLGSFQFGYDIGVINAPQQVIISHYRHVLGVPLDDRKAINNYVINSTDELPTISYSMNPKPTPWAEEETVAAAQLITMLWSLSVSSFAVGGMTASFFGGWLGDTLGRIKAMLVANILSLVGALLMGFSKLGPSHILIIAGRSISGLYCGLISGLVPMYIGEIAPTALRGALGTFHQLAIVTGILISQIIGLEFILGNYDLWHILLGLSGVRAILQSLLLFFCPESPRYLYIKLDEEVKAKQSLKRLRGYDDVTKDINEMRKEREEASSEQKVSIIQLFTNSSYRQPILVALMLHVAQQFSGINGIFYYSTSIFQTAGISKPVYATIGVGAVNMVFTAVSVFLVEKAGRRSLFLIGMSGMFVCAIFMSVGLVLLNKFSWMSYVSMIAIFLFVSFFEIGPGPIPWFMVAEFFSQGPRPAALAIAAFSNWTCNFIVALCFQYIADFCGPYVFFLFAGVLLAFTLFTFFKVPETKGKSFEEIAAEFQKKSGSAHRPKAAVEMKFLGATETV
Description: as §1, §2, §3, §4, §5

[1] = differentiated Caco-2 monolayer, 5 mM D-glucose, 15 minutes, active at 300 uM

Compound	SGLT1 inhibitory activity (in words) (SGLT1; 5 mM D-glucose)	Class (assigned class of transporter inhibited) (SGLT1)	inhibition at 300 µM (SGLT1; [1]) [%]	inhibition at 150 µM (GLUT2) [%]	further results
COc1cc(-c2[o+]c3cc(O)cc(O)c3cc2O[C@@H]2O[C@H](CO)[C@H](O)[C@H](O)[C@H]2O)cc(OC)c1O [Malvidin 3-O-Galactoside]	absence of SGLT1 inhibitory activity	None	–	–	% Glucose Transport inhibition 25 mM (GLUT2): 10.41%
O=c1c(-c2ccc(O)cc2)coc2cc(O)cc(O)c12 [Genistein]	–	GLUT2 (GLUT2 inhibitors having ≧20% inhibition at both 5 mM and 25 mM D-glucose levels)	56.5	57.7	–
O=c1cc(-c2ccc(O)cc2)oc2cc(OC3O[C@H](CO)[C@@H](O)[C@H](O)[C@H]3O)cc(O)c12 (stereo partly drawn) [Apigenin-7-glucoside]	–	–	–	–	% Glucose Transport inhibition 25 mM (GLUT2): 12.81%
COc1ccc([C@@H]2CC(=O)c3c(O)cc(O)cc3O2)cc1O [Hesperetin]	–	GLUT2 (GLUT2 inhibitors having ≧20% inhibition at both 5 mM and 25 mM D-glucose levels)	72.3	74.4	–
O=C1C[C@@H](c2ccccc2)Oc2cc(O)cc(O)c21 [Pinocembrin]	–	GLUT2 (GLUT2 inhibitors having ≧20% inhibition at both 5 mM and 25 mM D-glucose levels)	47.7	48.1	–
O=c1c(O)c(-c2cc(O)c(O)c(O)c2)oc2cc(O)cc(O)c12 [Myricetin]	–	GLUT2 (GLUT2 inhibitors having ≧20% inhibition at both 5 mM and 25 mM D-glucose levels)	76.8	55	–
O=c1c(O[C@@H]2O[C@H](CO)[C@@H](O)[C@H](O)[C@H]2O)c(-c2ccc(O[C@@H]3O[C@H](CO)[C@@H](O)[C@H](O)[C@H]3O)c(O)c2)oc2cc(O)cc(O)c12 [Quercetin-3,4′-diglucoside]	destroys this inhibitory action	None	–	–	–
O=c1c(O)c(-c2ccc(O)cc2)oc2cc(O)cc(O)c12 [Kaempferol]	–	GLUT2 (GLUT2 inhibitors having ≧20% inhibition at both 5 mM and 25 mM D-glucose levels)	26	32.4	–
O=c1c(-c2ccc(O)cc2)coc2cc(O[C@@H]3O[C@H](CO)[C@@H](O)[C@H](O)[C@H]3O)ccc12 [Daidzein-7-glucoside]	inhibition of SGLT1	SGLT1	–	–	% Glucose Transport inhibition 5 mM (SGLT1; [1]): 35.03%; % Glucose Transport inhibition 25 mM (GLUT2): 7.23%
OC[C@H]1O[C@@H](Oc2cc3c(O)cc(O)cc3[o+]c2-c2cc(O)c(O)c(O)c2)[C@H](O)[C@@H](O)[C@@H]1O [Delphinidin-3-glucoside]	inhibition of SGLT1	SGLT1	–	–	–
O=C(O)/C=C/c1ccc(O)c(O)c1 [caffeic acid]	no inhibitory activity	–	–	–	GLUT2 inhibitory activity (in words) (GLUT2): no inhibitory activity
O=c1cc(-c2ccc(O)c(O)c2)oc2cc(O)cc(O)c12 [Luteolin]	–	GLUT2 (GLUT2 inhibitors having ≧20% inhibition at both 5 mM and 25 mM D-glucose levels)	77.4	63.2	–
O=C(/C=C/c1ccc(O)c(O)c1)O[C@@H]1C[C@](O)(C(=O)O)C[C@@H](O)[C@H]1O [chlorogenic acid]	no inhibitory activity	–	–	–	GLUT2 inhibitory activity (in words) (GLUT2): no inhibitory activity
O=C(/C=C/c1ccc(O)c(O)c1)O[C@H](Cc1ccc(O)c(O)c1)C(=O)O [rosmarinic acid]	no inhibitory activity	–	–	–	GLUT2 inhibitory activity (in words) (GLUT2): no inhibitory activity
OC[C@H]1O[C@@H](Oc2cc3c(O)cc(O)cc3[o+]c2-c2ccc(O)c(O)c2)[C@H](O)[C@@H](O)[C@@H]1O [Cyanidin-3-glucoside]	inhibition of SGLT1	SGLT1	–	–	–
Oc1cc(O)c2cc(O)c(-c3ccc(O)c(O)c3)[o+]c2c1 [Cyanidin]	–	–	7.93	3.21	–
O=C1C[C@@H](c2ccc(O)c(O)c2)Oc2cc(O[C@@H]3O[C@H](CO)[C@@H](O)[C@H](O)[C@H]3O)cc(O)c21 [Eriodictiol-7-O-glucoside]	inhibition of SGLT1	SGLT1	–	–	% Glucose Transport inhibition 25 mM (GLUT2): 4.98%
O=C(CCc1ccc(O)cc1)c1c(O)cc(O)cc1O [Phloretin, reference compound]	–	–	–	76.1	–
C[C@@H]1O[C@@H](OC[C@H]2O[C@@H](Oc3cc4c(O)cc(O)cc4[o+]c3-c3ccc(O)c(O)c3)[C@H](O)[C@@H](O)[C@@H]2O)[C@H](O)[C@H](O)[C@H]1O [Cyanidin-3-rutinoside]	absence of SGLT1 inhibitory activity	None	–	–	–
O=c1c(-c2ccc(O)cc2)coc2c([C@@H]3O[C@H](CO)[C@@H](O)[C@H](O)[C@H]3O)c(O)ccc12 [Daidze in-8-C-glucoside]	inhibition of SGLT1	SGLT1	–	–	–
OC[C@H]1O[C@@H](Oc2ccc(O)cc2)[C@H](O)[C@@H](O)[C@@H]1O [arbutin]	lack of SGLT1 inhibitory activity	–	–	–	–
Oc1cc(O)c2cc(O)c(-c3cc(O)c(O)c(O)c3)[o+]c2c1 [Delphinindin]	–	–	–	–	% Glucose Transport inhibition 25 mM (GLUT2): 15.86%
Oc1ccc(-c2[o+]c3cc(O)cc(O)c3cc2O)cc1 [Pelargonidin]	–	–	4.07	–	–
